Consider one compound from patent publication US10070651B2, “Synthesis and characterization of antimicrobial non-color forming silver-silica nanocomposite” (UNIVERSITY OF CENTRAL FLORIDA RESEARCH FOUNDATION, INC., priority 2015, dated 2018).

The test system of one series is bacteria. In words: Antimicrobial efficacy / bacterial viability assay, summary statements without named organism. It is filed as cell-based. The conditions noted are these: equivalent concentrations of silver. As to the method:
Such an enhanced antimicrobial efficacy, for instance, may be attributed to a sustained release of silver, for example, either as a nanoparticle and/or its ionic form. By way of example, antimicrobial efficacy of the silica-silver nanocomposite particle was evaluated relative to that of the silver nanoparticle (AgNP) lacking the dielectric material encapsulation and aqueous silver nitrate (AgNO3) solutions, respectively, at equivalent concentrations of silver (if present). Note that, the silver nanoparticle and the silver nitrate, in this example, have been used as a positive growth control, while the silica nanoparticle (SiNP) lacking silver components, has been used as a negative growth control.
In order to gain a better understanding of the antimicrobial efficacy of each material, we carried out a colony forming unit study over two time points, 1 and 4 hours. 96 well plates were prepared and incubated as described for M IC studies, and 10 μL samples from wells containing the concentrations of antimicrobial agents were taken at each time point. […] MH2 agar plates labeled by material and time point were then spotted with five 10 μL drops from each well at each concentration, allowed to dry in the sterile conditions of a biosafety cabinet, and then incubated 12-14 hours before colonies were counted. […]

Series [1] in a line: Color passivation study on coated tiles (thermal and UV treatments). It is filed as physicochemical. As to the method: White tiles were purchased from Home Depot, and scrubbed with acetone and Kim wipes to remove any oils which would inhibit materials from adhering well. After scrubbing and allowing the tiles to dry, about 50 μL samples of each material were spread over an area approximately 3cm by 3cm, and allowed to dry under ambient conditions. A picture was taken, and then tiles were exposed to long and shortwave UV radiation for 5 minutes, and briefly heated using a butane torch, and photographed again to observe the change in color of each material.

Turning to `O=[N+]([O-])[O-].[Ag+]` [AgNO3, silver nitrate], in the series with bacteria, the “antimicrobial efficacy, relative ranking” value is reported as “most effective antimicrobial form of silver”. In series [1] (UV radiation for 5 minutes and brief heating with butane torch), the “color of coated tile after thermal and UV treatments” value is “dark brown/black color”. Besides, in series [1] (white tiles, dried coating), the “color of coated tile before thermal and UV treatments” value is on record as “do not show formation of color”.
